# “Also recorded” adds a separate entry of the source.
# Tests used:
# BRD4 = BRD4 (Homo sapiens, UniProt O60885); assay: CURE-PRO-mediated BRD4 degradation in MCF7 cells, Western blot; assay type: cell-based; design: endogenous in cells; conditions: 1:1 with VHL ligand 8305, MCF7, 24 h, 100 nM-10 μM
# Description: Namalwa, Ramosm HeLa, MCF7, or HT29 HCT116 cells (2.5-3×10^6) were treated for 24 hours with the indicated compounds solubilized in DMSO. The cells were washed in ice-cold PBS and were then lysed in RIPA lysis buffer (150 mM NaCl, 5 mM EDTA, 1% NP-40, 0.5% sodium deoxycholate, 0.1% SDS, 50 mM Tris, pH 8.0.) with Roche protease inhibitor complete cocktail and phosphatase inhibitors (10 mM sodium fluoride, 10 mM sodium pyrophosphate, 1 mM sodium orthovanadate and 20 mM β-glycerophosphate). The total protein concentrations were determined by Bradford Protein Assay (Pierce) and 10-20 μg of protein was loaded onto 4-15% Tris-Glycine gradient gels (Biorad). After standard gel electrophoresis, the separated proteins were transferred to PVDF membrane by wet transfer. The immunoblots were then blocked for 1 hour in 5% skim milk in TBST or 5% BSA in TBST, according to manufacturer's instructions, before an overnight incubation at 4° C. with indicated antibodies and membranes. Membranes were then incubated with the appropriate horseradish peroxidase-conjugated secondary antibodies (1:5,000 dilution) for 1 h at room temperature and the bands were visualized using the Clarity Max Western ECL Substrate (Biorad) and the ChemiDoc Imaging System (Biorad). Signal was detected with ECL Western Blotting Substrate (Pierce) and X-ray film processed with a Konica SRX-101 X-ray film processor or captured by Bio-Rad's Chemidoc Imaging system.
# MCF7 cells (3×10^6) were treated for 24 h with the compounds solubilized in DMSO. Compounds were added at 100 nM-10 μM. Standardized protein samples were electrophoresed and imaged as described in the Immunoblotting section above. FIG. 69 depicts the CURE-PRO-mediated BRD4 degradation for the BRD-E9 monomer and VHL ligands 8305 combined in a 1:1 ratio, and FIG. 70 depicts the CURE-PRO-mediated BRD4 degradation for the BRD-E20 monomer and 8305.
# MCF7 cells (3×10^6) were treated for 24 h with the compounds solubilized in DMSO. Compounds were added at 1 μM-10 μM. Standardized protein samples were electrophoresed and imaged as described in the Immunoblotting section above. FIG. 71 depicts the CURE-PRO-mediated BRD4 degradation for the BRD-E50 monomer and VHL ligands 8305 and 8304 combined in a 1:1 ratio.
# SLC19A1 = assay: RT-PCR of c-MYC downstream target gene SLC19A1 in HeLa cells; assay type: cell-based, Human; conditions: 10 μM each, 24 h
# Description: The suppression of the expression of the downstream c-MYC target, SLC19A1, was measured by RT-PCR using Power SYBR® Green Cells-to-Ct™ Kit (Life Technologies). Adherent cells were plated on 96 well plates at 5,000 cells per well were treated for 24 h with monomer compounds and compounds capable of reversible interactions (1 nM-100 μM). Cells were subsequently washed in ice-cold PBS processed according to the manufacturer's instructions. Quantitative real-time PCR was performed using a ViiA™ 7 Real-time PCR System (Applied Biosystems, Foster City, Calif., USA). GAPDH and ACTB served as internal controls.
# HeLa cells (1×10^4) were treated for 24 hours in 96 well plates with the compounds solubilized in DMSO. Compounds were added at 10 μM each and RNA expression measured by the Cells-to Ct method described above (Thermofisher).
Structure (SMILES),BRD4 degradation (BRD4),"suppression of SLC19A1 expression (SLC19A1; combined with MDM2 ligand 8310, HeLa)","suppression of SLC19A1 expression (SLC19A1; combined with MDM2 ligand 8312, HeLa)"
"CCNC(=O)C[C@@H]1N=C(c2ccc(Cl)cc2)c2cc(OCCCCC(=O)Nc3cccc(B(O)O)c3)ccc2-n2c(C)nnc21 [BRD-E20, (3-(5-(((4S)-6-(4-chlorophenyl)-4-(2-(ethylamino)-2-oxoethyl)-1-methyl-4H-benzo[f][1,2,4]triazolo[4,3-a][1,4]diazepin-8-yl)oxy)pentanamido)phenyl)boronic acid]",there is degradation of BRD4,,
"CCNC(=O)C[C@@H]1N=C(c2ccc(Cl)cc2)c2cc(OCCOCCNC(=O)c3cccc(O)c3O)ccc2-n2c(C)nnc21 [BRD-N39, N-(2-(2-(((4S)-6-(4-chlorophenyl)-4-(2-(ethylamino)-2-oxoethyl)-1-methyl-4H-benzo[f][1,2,4]triazolo[4,3-a][1,4]diazepin-8-yl)oxy)ethoxy)ethyl)-2,3-dihydroxybenzamide]",,suppression to levels comparable to that of JQ1 treatment,Complete suppression; also recorded: completely suppressed
